Data on six compounds can be found in patent publication EP4644383A1 (Jiangsu Yahong Meditech Co., Ltd., priority 2022, dated 2024).

Some results are limits rather than exact numbers.

By IC50 is commonly meant the concentration that gives 50% inhibition.

Holding throughout (assay type): biochemical
Assay [1] concerns the target T1, FGFR1 (Homo sapiens, UniProt P11362).
T1 construct: cytoplasmic domain [398-822 (terminal) amino acids]; purchased Carna 08-133
The assay can be described thus: FGFR1 kinase activity inhibition assay (LanthaScreen TR-FRET). The note with it: FGFR1 kinase, TR-FRET; read-out: IC50 (nM) FGFR1. In outline:
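Emission ratio 520 nm/495 nm by TR-FRET after stopping reaction with 10 mM EDTA and 60 min incubation at 22°C. Inhibition normalized between no-enzyme (min) and DMSO (max) controls, then fitted to a four-parameter curve (Top, Bottom, HillSlope).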
Background: TR-FRET usually uses a lanthanide donor and a delayed reading to cut background.

The target of assay [2] is T2, FGFR3 (Homo sapiens, UniProt P22607).
T2 construct: FGFR3's cytoplasmic domain [436-806 (terminal) amino acids]; purchased Carna 08-135
The assay can be described thus: FGFR3 kinase activity inhibition assay (LanthaScreen TR-FRET). The note with it: for IC50: FGFR3 kinase, TR-FRET, read-out: IC50 (nM) FGFR3; for Selectivity (X) FGFR1/FGFR3: ratio of IC50 FGFR1/FGFR3, selectivity towards FGFR3; for Selectivity (X) FGFR2/FGFR3: ratio of IC50 FGFR2/FGFR3, selectivity towards FGFR3; for Selectivity (X) FGFR4/FGFR3: ratio of IC50 FGFR4/FGFR3, selectivity towards FGFR3. In outline: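 Read-out is TR-FRET, with the 520 nm/495 nm emission ratio normalised to DMSO (max) and enzyme-free (min) controls. Enzyme was the FGFR3 cytoplasmic domain, residues 436-806. EDTA (10 mM) stopped the reaction, followed by 60 min at 22 °C before reading.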

In assay [3] the target is T3, FGFR2 (Homo sapiens, UniProt P21802).
T3 construct: FGFR2's cytoplasmic domain [399-821 (terminal) amino acids]; purchased Carna 08-134
Kind of assay: FGFR2 kinase activity inhibition assay (LanthaScreen TR-FRET). The note with it: FGFR2 kinase, TR-FRET; read-out: IC50 (nM) FGFR2. In outline:
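GST-fused FGFR2 cytoplasmic domain (aa 399-821) was run as in the FGFR1 protocol: preincubated 10 min at 23 °C with compound (3-fold series from 1 µM) in 50 mM HEPES pH 7.5, 10 mM MgCl2, 4 mM DTT, 1% DMSO. A 2× mix of 28 nM fluorescein-poly GT/28 µM ATP then reacted 30 min. Tb-PY20/EDTA quench preceded the TR-FRET 520/495 read.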

Assay [4] has as its target T4, FGFR4 (Homo sapiens, UniProt P22455).
T4 construct: FGFR4's cytoplasmic domain [460-802 (terminal) amino acids]; purchased Carna 08-136
Kind of assay: FGFR4 kinase activity inhibition assay (LanthaScreen TR-FRET). The note with it: FGFR4 kinase, TR-FRET; read-out: IC50 (nM) FGFR4. In outline: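 GST-tagged cytoplasmic domains (FGFR2 aa 399-821; FGFR4 aa 460-802) were preincubated 10 min at 23 °C with compound (top 1 µM, threefold dilutions). Then 28 nM fluorescein-poly GT and 28 µM ATP were added for 30 min at 23 °C in HEPES pH 7.5 buffer. Tb-PY20 TR-FRET 520/495 ratio gave % inhibition versus DMSO and no-enzyme controls.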

T1 sequence (P11362 398-822): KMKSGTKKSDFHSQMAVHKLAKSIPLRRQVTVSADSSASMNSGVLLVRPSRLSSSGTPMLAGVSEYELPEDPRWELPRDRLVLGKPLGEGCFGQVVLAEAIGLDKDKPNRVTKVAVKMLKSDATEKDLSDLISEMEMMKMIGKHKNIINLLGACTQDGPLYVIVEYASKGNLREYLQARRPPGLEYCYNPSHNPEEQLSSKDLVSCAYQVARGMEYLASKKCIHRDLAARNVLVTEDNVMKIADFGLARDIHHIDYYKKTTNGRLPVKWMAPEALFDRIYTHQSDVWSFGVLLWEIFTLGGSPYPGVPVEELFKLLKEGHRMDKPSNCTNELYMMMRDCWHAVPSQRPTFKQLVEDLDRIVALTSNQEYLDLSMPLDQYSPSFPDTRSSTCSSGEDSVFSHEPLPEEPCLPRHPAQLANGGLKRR
T2 sequence (P22607 436-806): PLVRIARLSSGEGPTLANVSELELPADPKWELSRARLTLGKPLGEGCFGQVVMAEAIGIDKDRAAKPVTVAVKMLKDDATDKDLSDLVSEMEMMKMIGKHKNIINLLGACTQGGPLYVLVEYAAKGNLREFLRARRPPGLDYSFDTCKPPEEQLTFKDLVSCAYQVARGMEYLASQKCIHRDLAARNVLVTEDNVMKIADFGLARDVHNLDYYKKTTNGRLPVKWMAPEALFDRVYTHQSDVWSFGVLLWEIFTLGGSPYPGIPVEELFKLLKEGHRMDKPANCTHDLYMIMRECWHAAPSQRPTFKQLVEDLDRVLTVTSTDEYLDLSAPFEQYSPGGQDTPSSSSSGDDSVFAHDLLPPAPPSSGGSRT
T4 sequence (P22455 460-802): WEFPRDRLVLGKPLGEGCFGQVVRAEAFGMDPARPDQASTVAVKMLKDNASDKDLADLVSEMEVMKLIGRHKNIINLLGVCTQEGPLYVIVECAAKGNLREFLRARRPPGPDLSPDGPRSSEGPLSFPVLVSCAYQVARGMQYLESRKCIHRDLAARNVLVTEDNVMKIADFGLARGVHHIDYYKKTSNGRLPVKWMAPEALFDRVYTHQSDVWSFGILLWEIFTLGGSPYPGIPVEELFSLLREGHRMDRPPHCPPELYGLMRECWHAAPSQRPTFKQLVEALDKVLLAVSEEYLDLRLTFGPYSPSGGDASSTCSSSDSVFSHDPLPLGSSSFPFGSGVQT
T3 sequence (P21802 399-821): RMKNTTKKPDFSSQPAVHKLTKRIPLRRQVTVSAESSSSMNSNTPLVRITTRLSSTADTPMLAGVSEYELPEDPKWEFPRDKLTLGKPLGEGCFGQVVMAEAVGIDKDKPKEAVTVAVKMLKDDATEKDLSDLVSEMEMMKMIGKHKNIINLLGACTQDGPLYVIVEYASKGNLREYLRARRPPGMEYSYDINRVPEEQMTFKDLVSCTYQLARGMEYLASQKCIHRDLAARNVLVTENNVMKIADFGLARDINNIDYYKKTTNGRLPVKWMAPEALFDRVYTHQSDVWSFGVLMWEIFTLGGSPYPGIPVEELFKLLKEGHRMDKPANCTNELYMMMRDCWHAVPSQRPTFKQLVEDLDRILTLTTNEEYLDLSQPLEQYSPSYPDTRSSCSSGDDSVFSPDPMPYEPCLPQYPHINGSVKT

For the compound `CNC1(C(=O)N2CC(n3cc(-c4n[nH]c5ccc(OC(C)c6cc(Cl)cc7nccnc67)cc45)cn3)C2)CC1` (stereo not drawn) [Example 212, (3-(4-(5-(1-(7-chloroquinoxalin-5-yl)ethoxy)-1H-indazol-3-yl)-1H-pyrazol-1-yl)azetidin-1-yl)(1-(methylamino)cyclopropyl)metha none], the IC50 in assay [1] is 10 to 100 nM; in assay [2], less than 1 nM; in assay [3], 1 to 10 nM; in assay [4], 10 to 100 nM. The “Selectivity (X) FGFR1/FGFR3” value in assay [2] is listed as “B (B represents 20 ≤ multiple X<50)”. In addition, the “Selectivity (X) FGFR2/FGFR3” value in assay [2] was “B (B represents 20 ≤ multiple X<50)”. The “Selectivity (X) FGFR4/FGFR3” value in assay [2] is “D (D represents 100 ≤ multiple X)”.

As to `Cc1cc(C(C)Oc2ccc3[nH]nc(-c4cnn(C5CN(C(=O)C(C)(C)O)C5)c4)c3c2)c2cccnc2c1` (stereo not drawn) [Example 213, 2-hydroxy-2-methyl-1-(3-(4-(5-(1-(7-methylquinolin-5-yl)ethoxy)-1H-indazol-3-yl)-1H-pyrazol-1-yl)azetidin-1-yl)propan-1-one], the IC50 in assay [1] is 10 to 100 nM. In assay [2], the half-maximal inhibitory concentration (IC50) was less than 1 nM, the “Selectivity (X) FGFR1/FGFR3” value is “C (C represents 50 ≤ multiple X<100)”, the “Selectivity (X) FGFR2/FGFR3” value is “A (A represents 1 ≤ multiple X<20)” and the “Selectivity (X) FGFR4/FGFR3” value is recorded as “C (C represents 50 ≤ multiple X<100)”. The 50% inhibitory concentration (IC50) in assay [3] lay in the range of 1 to 10 nM. Moreover, the IC50 in assay [4] fell in the range of 10 to 100 nM.

`COC1(C(=O)N2CC(n3cc(-c4n[nH]c5ccc(OC(C)c6cc(Cl)cc7nccnc67)cc45)cn3)C2)CC1` (stereo not drawn) [Example 223, (3-(4-(5-(1-(7-chloroquinoxalin-5-yl)ethoxy)-1H-indazol-3-yl)-1H-pyrazol-1-yl)azetidin-1-yl)(1-methoxycyclopropyl)methanone]: the IC50 in assay [1] was 10 to 100 nM. In assay [2], the IC50 is less than 1 nM, the “Selectivity (X) FGFR1/FGFR3” value is given as “B (B represents 20 ≤ multiple X<50)”, the “Selectivity (X) FGFR2/FGFR3” value is “B (B represents 20 ≤ multiple X<50)” and the “Selectivity (X) FGFR4/FGFR3” value is recorded as “D (D represents 100 ≤ multiple X)”. Besides, the IC50 in assay [3] lay within 10 to 100 nM. In assay [4], the IC50 is more than 100 nM.

On to `COC(C)(C)C(=O)N1CC(n2cc(-c3n[nH]c4ccc(OC(C)c5cc(Cl)cc6nccnc56)cc34)cn2)C1` (stereo not drawn) [Example 224, 1-(3-(4-(5-(1-(7-chloroquinoxalin-5-yl)ethoxy)-1H-indazol-3-yl)-1-pyrazol-1-yl)azetidin-1-yl)-2-methoxy-2-methylpropan-1-one], for which the IC50 is 10 to 100 nM in assay [1], less than 1 nM in assay [2], 1 to 10 nM in assay [3] and 10 to 100 nM in assay [4]. Further, the “Selectivity (X) FGFR1/FGFR3” value in assay [2] is “B (B represents 20 ≤ multiple X<50)”. In addition, the “Selectivity (X) FGFR2/FGFR3” value in assay [2] is “C (C represents 50 ≤ multiple X<100)”. In assay [2], the “Selectivity (X) FGFR4/FGFR3” value is recorded as “D (D represents 100 ≤ multiple X)”.

On to `Cc1cc2nccnc2c(C(C)Oc2cc(C)c3[nH]nc(-c4cnn(C)c4)c3c2)n1` (stereo not drawn) [Example 233, 7-methyl-5-(1-((7-methyl-3-(1-methyl-1H-pyrazol-4-yl)-1H-indazol-5-yl)oxy)ethyl)pyridino[3,4-b]pyrazine], for which the IC50 in assay [1] fell in the range of 10 to 100 nM. In addition, in assay [2], the IC50 was in the range of 1 to 10 nM, the “Selectivity (X) FGFR1/FGFR3” value was “B (B represents 20 ≤ multiple X<50)”, the “Selectivity (X) FGFR2/FGFR3” value is “A (A represents 1 ≤ multiple X<20)” and the “Selectivity (X) FGFR4/FGFR3” value was “C (C represents 50 ≤ multiple X<100)”. The IC50 in assay [3] lay within 1 to 10 nM. Moreover, in assay [4], the IC50 is more than 100 nM.

In the case of `Cc1cc2nccnc2c(C(C)Oc2cc3c(-c4cnn(C)c4)n[nH]c3cc2F)n1` (stereo not drawn) [Example 234, 5-(1-((6-fluoro-3-(1-methyl-1H-pyrazol-4-yl)-1H-indazol-5-yl)oxy)ethyl)-7-methylpyrido[3,4-b]pyrazine], the IC50 in assay [1] is 1 to 10 nM. Further, in assay [2], the IC50 was less than 1 nM, the “Selectivity (X) FGFR1/FGFR3” value is “A (A represents 1 ≤ multiple X<20)”, the “Selectivity (X) FGFR2/FGFR3” value was “A (A represents 1 ≤ multiple X<20)” and the “Selectivity (X) FGFR4/FGFR3” value was “B (B represents 20 ≤ multiple X<50)”. In addition, in assay [3], the IC50 is less than 1 nM. In addition, the IC50 in assay [4] is 1 to 10 nM.
